Assay results: ChEMBL document CHEMBL6092138, “Discovery of the potent covalent inhibitor with an acrylate warhead for SARS-CoV-2 3CL protease” (Bioorg Med Chem Lett, 2024)
pEC50, pIC50: −log10 of the molar value.

Tests used:
Huh-7 = assay: Cytotoxicity against human Huh-7 cells assessed as reduction in cell viability measured after 7 days by celltiter-glo assay; assay type: functional; conditions: Huh-7, 168 h, time 7 day
[1] = target: Replicase polyprotein 1ab (Severe acute respiratory syndrome coronavirus 2, UniProt P0DTD1); assay: Inhibition of 6-his taggedSARS-Cov-2 3-CL protease using Dabcyl-KNSTLQSGLRKE-Edans as substrate preincubated for 60 mins followed by substrate addition by fluorescence based analysis
[2] = target: Replicase polyprotein 1ab (Severe acute respiratory syndrome coronavirus 2) (UniProt P0DTD1); assay: Binding affinity to 6-his taggedSARS-Cov-2 3-CL protease assessed as Kinact/Ki using Dabcyl-KNSTLQSGLRKE-Edans as substrate measured for 120 mins
Human coronavirus OC43 = assay: Antiviral activity against HCoV OC43 infected in human Huh-7 cells assessed as inhibition of viral replication of CPE assay; assay type: functional, organism-based; conditions: Betacoronavirus 1, Huh-7

| SMILES | CC50 (Huh-7) [nM] | pIC50 [1] | K [2] [M⁻¹ s⁻¹] | pEC50 (Human coronavirus OC43) |
| --- | --- | --- | --- | --- |
| CC(C)(C)[C@H](NC(=O)C(F)(F)F)C(=O)N1C[C@H]2[C@@H]([C@H]1C(=O)N[C@H](/C=C/C(N)=O)C[C@@H]1CCNC1=O)C2(C)C | > 10000 | 7.63 | 9750 | 5.04 |
| CN(C)CCOc1c(Cl)cc(C(NC(=O)C(C)(C)F)C(=O)N2C[C@H]3[C@@H]([C@H]2C(=O)N[C@H](C#N)C[C@@H]2CCNC2=O)C3(C)C)cc1Cl (stereo not given in full) | – | 6.60 | – | – |
| CN(C)CCOc1c(Cl)cc([C@H](NC(=O)C(F)(F)F)C(=O)N2C[C@H]3[C@@H]([C@H]2C(=O)N[C@H](C#N)C[C@@H]2CCNC2=O)C3(C)C)cc1Cl | – | 6.20 | – | – |
| COC(=O)/C=C/[C@H](C[C@@H]1CCNC1=O)NC(=O)[C@@H]1[C@@H]2[C@H](CN1C(=O)[C@@H](NC(=O)C(F)(F)F)C(C)(C)C)C2(C)C | > 10000 | 7.54 | 17200 | 7.01 |
| CC(C)C(=O)N[C@H](C(=O)N1C[C@H]2[C@@H]([C@H]1C(=O)N[C@H](C#N)C[C@@H]1CCNC1=O)C2(C)C)c1cc(Cl)c(OCCN(C)C)c(Cl)c1 | – | 6.69 | – | – |
| CC(C)(C)[C@H](NC(=O)C(F)(F)F)C(=O)N1C[C@H]2[C@@H]([C@H]1C(=O)N[C@H](C#N)C[C@@H]1CCNC1=O)C2(C)C [NIRMATRELVIR] | > 10000 | – | – | 7.14 |
| CC(=O)/C(C)=C\[C@H](C[C@@H]1CCNC1=O)NC(=O)[C@@H]1[C@@H]2[C@H](CN1C(=O)[C@@H](NC(=O)C(F)(F)F)C(C)(C)C)C2(C)C | – | 7.30 | – | – |
| CN(C)CCOc1c(Cl)cc([C@H](NC(=O)C(F)F)C(=O)N2C[C@H]3[C@@H]([C@H]2C(=O)N[C@H](C#N)C[C@@H]2CCNC2=O)C3(C)C)cc1Cl | – | 6.42 | – | – |
